The values that follow come from PMC2231820 (The Journal of General Physiology, 2000).

The target in assay [1] is T1, bovine rod (Brod) CNG channel, α homomultimer (Bos taurus, UniProt Q00194).
T1 sequence (Q00194 1-690): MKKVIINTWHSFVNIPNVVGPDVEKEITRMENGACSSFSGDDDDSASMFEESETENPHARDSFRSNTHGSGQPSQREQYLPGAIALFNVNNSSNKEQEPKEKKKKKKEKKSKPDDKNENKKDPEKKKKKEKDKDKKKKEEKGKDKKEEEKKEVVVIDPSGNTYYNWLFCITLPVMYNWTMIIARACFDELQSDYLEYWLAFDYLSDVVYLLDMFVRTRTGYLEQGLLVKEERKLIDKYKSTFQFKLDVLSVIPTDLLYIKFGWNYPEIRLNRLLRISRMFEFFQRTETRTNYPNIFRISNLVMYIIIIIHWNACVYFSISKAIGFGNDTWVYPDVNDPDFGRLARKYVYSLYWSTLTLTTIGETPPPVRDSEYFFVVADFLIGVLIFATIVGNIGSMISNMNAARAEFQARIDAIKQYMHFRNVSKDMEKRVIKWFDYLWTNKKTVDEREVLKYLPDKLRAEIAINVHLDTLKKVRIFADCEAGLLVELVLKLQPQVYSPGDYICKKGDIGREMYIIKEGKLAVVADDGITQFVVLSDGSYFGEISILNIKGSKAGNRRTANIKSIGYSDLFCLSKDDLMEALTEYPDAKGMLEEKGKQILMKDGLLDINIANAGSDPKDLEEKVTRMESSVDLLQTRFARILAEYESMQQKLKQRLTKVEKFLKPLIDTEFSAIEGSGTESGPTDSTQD
In kind it is cell-based. Particulars: for Hill coefficient n of cGMP activation: six patches.

Another assay has as its target T2, Rolf G204E CNG channel (Rattus norvegicus, UniProt Q00195, G204E).
T2 sequence (Q00195 1-664 G204E): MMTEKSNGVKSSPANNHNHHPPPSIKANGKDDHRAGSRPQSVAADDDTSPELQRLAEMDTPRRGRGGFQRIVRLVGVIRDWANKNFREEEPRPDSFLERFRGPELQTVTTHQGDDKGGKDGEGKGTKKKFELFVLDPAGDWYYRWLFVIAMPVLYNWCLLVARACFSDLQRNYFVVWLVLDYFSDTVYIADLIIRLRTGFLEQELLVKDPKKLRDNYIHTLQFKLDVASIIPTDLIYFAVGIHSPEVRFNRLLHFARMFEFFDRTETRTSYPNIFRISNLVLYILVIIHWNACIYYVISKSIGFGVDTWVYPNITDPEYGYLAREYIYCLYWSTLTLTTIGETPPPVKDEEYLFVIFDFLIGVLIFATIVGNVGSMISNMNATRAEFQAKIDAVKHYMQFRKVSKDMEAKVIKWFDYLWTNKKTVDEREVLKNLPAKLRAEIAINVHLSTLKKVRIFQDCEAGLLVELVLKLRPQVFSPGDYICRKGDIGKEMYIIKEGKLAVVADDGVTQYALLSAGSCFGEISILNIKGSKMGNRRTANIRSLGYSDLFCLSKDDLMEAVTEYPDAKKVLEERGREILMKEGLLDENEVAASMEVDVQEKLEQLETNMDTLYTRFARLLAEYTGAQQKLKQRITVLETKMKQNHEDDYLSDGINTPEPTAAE
In kind it is cell-based. Conditions: for Hill coefficient n of cGMP activation: 2 patches.

Another assay deals with T3, Rolf G204D CNG channel (Rattus norvegicus, UniProt Q00195, G204D).
T3 sequence (Q00195 1-664 G204D): T2 sequence (Q00195 1-664 G204E) with E204D
In kind it is cell-based.

The target of assay [2] is T4, rat olfactory (Rolf) CNG channel, α homomultimer (Rattus norvegicus, UniProt Q00195).
T4 sequence (Q00195 1-664): T2 sequence (Q00195 1-664 G204E) with E204G
Particulars: saturating 100 μM cGMP, ref Crary et al. 2000; cited from earlier work.

Assay [3] has as its target T1, bovine rod (Brod) CNG channel, α homomultimer. Conditions: saturating 2 mM cGMP, ref Crary et al. 2000; cited from earlier work.
The mark [4] stands for this setting: read-out: Percent inhibition by tetracaine.

Where a chain is given by its changes, count along the chain named. Read-outs that look alike come from different tables or passages of the source.

Consider `CCCCNc1ccc(C(=O)OCCN(C)C)cc1` [Tetracaine, tetracaine], for which the inhibition at 40 µM in assay [1] (setting [4]) is 94.1%; at Rolf G204E CNG channel (setting [4]), 76.4%. Also, on Rolf G204D CNG channel, the 50% inhibitory concentration (IC50) came to 10.8 µM.
For the compound `Nc1nc2c(ncn2[C@@H]2O[C@@H]3COP(=O)(O)O[C@H]3[C@H]2O)c(=O)[nH]1` [cGMP], the “I/Imax of cGMP-activated current” value in assay [1] (Brod, 10 μM cGMP, +100 mV) turned out to be 0.20. Further, the “Hill coefficient n of cGMP activation” value in assay [1] (Brod, +100 mV) is recorded as 2.0; in assay [1] (Brod, −100 mV), 2.0; at Rolf G204E CNG channel (Rolf G204E, +100 mV) it was 1.7; on Rolf G204E CNG channel (Rolf G204E, −100 mV), 1.7.
In the case of diacylglycerol [DAG], in assay [1] (Brod, 1.5 μM DAG, saturating 2 mM cGMP), the “decrease of maximal current by DAG” value is given as greater than 80%. Moreover, the “DAG concentration that fully suppresses cGMP-activated currents” value in assay [1] (Brod, saturating cGMP) was roughly 3 µM; at Rolf G204E CNG channel (Rolf G204E, saturating cGMP), roughly 3 µM. Besides, the “DAG maximal percent inhibition (INmax)” value is reported as 31% in assay [2]; 100% in assay [3]; 100% on Rolf G204E CNG channel (Rolf G204E, saturating 100 μM cGMP). The “Hill coefficient n of DAG inhibition” value in assay [3] is 1.7.
